Measured values reported in ChEMBL document CHEMBL5390298, “Nanomolar Benzothiazole-Based Inhibitors of 17β-HSD10 with Cellular Bioactivity” (ACS Med Chem Lett, 2023).

Columns and labels:
HEK293 = assay: Cytotoxicity against HEK293 cells assessed as cell damage at 50 uM incubated for 48 hrs by fluorometric method; type: toxicity, cell-based; conditions: human, hek293, 48 h
[1] = target: T1, 3-hydroxyacyl-CoA dehydrogenase type-2 (Homo sapiens, UniProt Q99714); assay: Inhibition of recombinant 17beta-HSD10 (unknown origin) using ALLOP as substrate and NAD+ as cofactor preincubated for 5 mins followed by substrate addition and measured after 20 mins by fluorometric assay
T1 sequence (Q99714 whole entry): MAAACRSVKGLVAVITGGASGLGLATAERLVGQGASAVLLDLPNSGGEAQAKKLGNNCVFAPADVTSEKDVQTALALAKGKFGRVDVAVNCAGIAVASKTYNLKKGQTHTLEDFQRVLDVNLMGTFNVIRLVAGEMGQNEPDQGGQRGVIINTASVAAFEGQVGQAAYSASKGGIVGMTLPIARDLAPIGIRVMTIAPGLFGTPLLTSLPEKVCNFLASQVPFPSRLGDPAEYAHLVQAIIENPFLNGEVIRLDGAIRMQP

[2] = target: T1, 3-hydroxyacyl-CoA dehydrogenase type-2; assay: Mixed type inhibition of recombinant 17beta-HSD10 (unknown origin) using E2 as substrate and NAD+ as cofactor preincubated for 5 mins followed by substrate addition and measured after 20 mins by fluorometric assay
[3] = target: T1, 3-hydroxyacyl-CoA dehydrogenase type-2; assay: Inhibition of recombinant 17beta-HSD10 (unknown origin) using E2 as substrate and NAD+ as cofactor preincubated for 5 mins followed by substrate addition and measured after 20 mins by fluorometric assay

CC(=O)Nc1ccc2nc(NCc3ccc(O)c(C(F)(F)F)c3)sc2c1
Activity (HEK293): Non-Toxic

CS(=O)(=O)Nc1ccc2nc(NC(=O)Nc3ccc(O)c(Cl)c3)sc2c1
Activity (HEK293): Non-Toxic

NS(=O)(=O)c1ccc2nc(NC(=O)Nc3ccc(O)c(Cl)c3)sc2c1
Activity (HEK293): Non-Toxic

O=C(Nc1ccc(O)c(Cl)c1)Nc1nc2cc(C(=O)O)ccc2s1
Activity (HEK293): Non-Toxic

CC(=O)Nc1ccc2nc(NCc3ccc(O)c(Cl)c3)sc2c1
Activity (HEK293): Non-Toxic

CC(=O)Nc1ccc2nc(N(CCc3ccc(O)c(Cl)c3)C(C)=O)sc2c1
Activity (HEK293): Non-Toxic

NC(=O)Nc1ccc2nc(NC(=O)Nc3ccc(O)c(Cl)c3)sc2c1
IC50 [1]: 330 nM | IC50 [2]: 270 nM | Activity (HEK293): Non-Toxic

O=C(Nc1ccc(O)c(Cl)c1)Nc1nc2ccc(C(=O)O)cc2s1
IC50 [3]: 1810 nM

CC(=O)Nc1ccc2nc(NC(=O)Nc3ccc(O)c(C(F)(F)F)c3)sc2c1
Activity (HEK293): Non-Toxic

O=C(O)c1ccc2nc(NCc3ccc(O)c(Cl)c3)sc2c1
Activity (HEK293): Non-Toxic

O=C(O)c1ccc2nc(NC(=O)c3ccc(O)c(Cl)c3)sc2c1
Activity (HEK293): Non-Toxic

CC(=O)Nc1ccc2nc(NCCc3ccc(O)c(Cl)c3)sc2c1
Activity (HEK293): Non-Toxic

CC(=O)Nc1ccc2nc(NC(=O)Nc3ccc(O)c(Cl)c3)sc2c1
IC50 [3]: 1150 nM

O=C(O)c1ccc2nc(NCCc3ccc(O)c(Cl)c3)sc2c1
Activity (HEK293): Non-Toxic

O=C(Nc1ccc(O)c(C(F)(F)F)c1)Nc1nc2ccc(C(=O)O)cc2s1
IC50 [1]: 250 nM | IC50 [2]: 340 nM | Activity (HEK293): Non-Toxic

O=C(Nc1ccc(O)c(Cl)c1)Nc1nc2ccc(-c3nnn[nH]3)cc2s1
IC50 [1]: 95 nM | IC50 [2]: 410 nM | Activity (HEK293): Non-Toxic
